Test systems include ACHN renal; EKVX NSCLC; HCT-15 colon; IGROV1 ovarian; KM12 colon; MOLT-4 leukemia; NCI-H226 lung; RPMI-8226 leukemia; U251 CNS.
Common to all, as to assay: growth of human tumour cells (NCI), 48 h

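Compound exposure: 48 hours, 5 concentrations, 96-well plates. Here, GI50 denotes the concentration required for 50% inhibition of growth. Definition used: TGI = concentration required for complete inhibition of growth.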

Consider `CC([O-])=C1C(=O)c2ccccc2C1=O.CC([O-])=C1C(=O)c2ccccc2C1=O.CC[O-].CC[O-].[Ti+4]`, for which the GI50 in the experiment with ACHN renal, in the experiment on EKVX NSCLC, in the experiment with HCT-15 colon, with IGROV1 ovarian, with KM12 colon and with MOLT-4 leukemia was over 100 µM in each case. For the same molecule, the GI50 in the experiment with NCI-H226 lung, in the experiment with RPMI-8226 leukemia and in the experiment with U251 CNS was over 100 µM each time. Moreover, the TGI in the experiment with ACHN renal, in the experiment with EKVX NSCLC, with HCT-15 colon, in the experiment with IGROV1 ovarian, in the experiment on KM12 colon and in the experiment on MOLT-4 leukemia was over 100 µM throughout. In addition, the TGI with NCI-H226 lung, in the experiment with RPMI-8226 leukemia and in the experiment with U251 CNS was over 100 µM in each case.
Consider `O=C1OC(=O)C2C3C=CC(C12)C1C2C=CC2C31` (centres undefined), for which the TGI with ACHN renal, in the experiment on EKVX NSCLC, with IGROV1 ovarian, with KM12 colon, with MOLT-4 leukemia and with NCI-H226 lung was over 100 µM each time. This molecule also returned a TGI in the experiment on U251 CNS of over 100 µM.
As to `O=c1c2cc3c(cc2c2cccc4c2n1CCC4)OCO3`, the TGI with ACHN renal was over 100 µM; in the experiment with EKVX NSCLC, 99.5 µM; with HCT-15 colon, over 100 µM; with IGROV1 ovarian it was over 100 µM; in the experiment with KM12 colon it was over 100 µM; in the experiment on MOLT-4 leukemia it was over 100 µM. For the same molecule, the TGI was over 100 µM in the experiment with NCI-H226 lung, over 100 µM in the experiment on RPMI-8226 leukemia and 73.5 µM with U251 CNS.
For the molecule `COCCOCCOCCOc1cccc2c1C(=O)c1cccc(OCCOCCOCCOC)c1C2=O`, the TGI with ACHN renal, in the experiment with EKVX NSCLC, with HCT-15 colon, in the experiment with IGROV1 ovarian, in the experiment on MOLT-4 leukemia and with RPMI-8226 leukemia was over 100 µM throughout. The TGI with U251 CNS was over 100 µM.
As for `O=C(NCCCl)SCCO`, the TGI in the experiment with ACHN renal, with EKVX NSCLC, with HCT-15 colon, in the experiment with IGROV1 ovarian, in the experiment with KM12 colon and with MOLT-4 leukemia was over 100 µM in each case. Further, the TGI with NCI-H226 lung, with RPMI-8226 leukemia and with U251 CNS was over 100 µM each time.
As to `NC(=O)NC1C(C(=O)O)N(Cc2ccccc2)C(=O)N1Cc1ccccc1` (centres undefined), the TGI was over 100 µM with ACHN renal; over 100 µM with EKVX NSCLC; over 100 µM in the experiment on HCT-15 colon; over 100 µM in the experiment with IGROV1 ovarian; over 100 µM with KM12 colon; 10.9 µM with MOLT-4 leukemia. The TGI with NCI-H226 lung, with RPMI-8226 leukemia and with U251 CNS was over 100 µM throughout.
Turning to `COc1cccc(N2C(=O)C3C4C=C5c6ccccc6N(c6ccccc6)C5(C3C2=O)[C@H]2C(=O)N(c3cccc(OC)c3)C(=O)[C@@H]42)c1` (some centres undefined), the TGI in the experiment with EKVX NSCLC, with HCT-15 colon, in the experiment with IGROV1 ovarian, in the experiment on KM12 colon, with MOLT-4 leukemia and in the experiment with NCI-H226 lung was over 100 µM throughout. Further, the TGI in the experiment on RPMI-8226 leukemia and in the experiment on U251 CNS was over 100 µM throughout.
Consider `COc1cc2ccnc3c(=C(SC)SC)c(=O)c(c1OC)c23`, for which the TGI in the experiment on ACHN renal is 26 µM; in the experiment on HCT-15 colon, 29.8 µM; in the experiment on IGROV1 ovarian, 47.5 µM; with KM12 colon, 53.5 µM; in the experiment with MOLT-4 leukemia, 23.8 µM; in the experiment with RPMI-8226 leukemia, 15.9 µM. This molecule also registered a TGI in the experiment with U251 CNS of over 100 µM.
Regarding `COc1ccc(-c2csc(NC(=O)CN3CCN(c4cc5c(cc4F)c(=O)c(C(=O)O)cn5C4CC4)CC3)n2)cc1`, the GI50 is 3.25 µM with ACHN renal; 4.39 µM in the experiment on EKVX NSCLC; 3.23 µM with HCT-15 colon; 7 µM with IGROV1 ovarian; 3.37 µM with KM12 colon; 4.96 µM in the experiment on NCI-H226 lung. The results for the GI50 in the experiment with RPMI-8226 leukemia and in the experiment with U251 CNS were 2.69 µM and 3.03 µM, respectively. Besides, the TGI with ACHN renal, with EKVX NSCLC, in the experiment with HCT-15 colon, in the experiment on IGROV1 ovarian, in the experiment on KM12 colon and in the experiment on NCI-H226 lung was over 100 µM throughout. In addition, the TGI in the experiment with RPMI-8226 leukemia was over 100 µM; with U251 CNS, 13.9 µM.
`COc1ccc(C(=O)C#Cc2c[nH]c(=O)[nH]c2=O)cc1`: the TGI with ACHN renal is 30.5 µM; in the experiment with EKVX NSCLC, over 54.4 µM; in the experiment on HCT-15 colon it was 20.9 µM; in the experiment on IGROV1 ovarian, over 62.9 µM; with KM12 colon, over 52.6 µM; with MOLT-4 leukemia, 8.19 µM. Moreover, the results for the TGI in the experiment on NCI-H226 lung, in the experiment with RPMI-8226 leukemia and in the experiment with U251 CNS were 42.4 µM, 41.6 µM and 22.7 µM, respectively.
Regarding `N#Cc1cccc(C=NC23CC4CC(CC(C4)C2)C3)c1`, the TGI in the experiment with ACHN renal, with EKVX NSCLC, with HCT-15 colon, with IGROV1 ovarian, in the experiment on KM12 colon and in the experiment on MOLT-4 leukemia was over 100 µM throughout. In addition, the TGI in the experiment on NCI-H226 lung, in the experiment on RPMI-8226 leukemia and in the experiment on U251 CNS was over 100 µM throughout.
On to `C=C(C(=C)P(=S)(C(C)C)C(C)C)P(=S)(C(C)C)C(C)C`, for which the TGI in the experiment with ACHN renal, with EKVX NSCLC, in the experiment with HCT-15 colon, with IGROV1 ovarian, in the experiment on KM12 colon and with MOLT-4 leukemia was over 100 µM in each case. The TGI in the experiment with NCI-H226 lung, with RPMI-8226 leukemia and with U251 CNS was over 100 µM each time.
For the molecule `c1ccc(OCc2nnc3n2N=C(c2ccccc2)CS3)cc1`, the TGI with ACHN renal, in the experiment on HCT-15 colon, with IGROV1 ovarian, with KM12 colon, in the experiment on MOLT-4 leukemia and in the experiment with NCI-H226 lung was over 100 µM in each case. Besides, the TGI in the experiment on RPMI-8226 leukemia and with U251 CNS was over 100 µM throughout.
Turning to `COc1ccc(NC(=O)CC(=O)n2nc(C)c(N=Nc3ccccc3C(=O)O)c2C)cc1`, the TGI in the experiment with EKVX NSCLC, in the experiment on HCT-15 colon, in the experiment with IGROV1 ovarian, in the experiment with KM12 colon, with MOLT-4 leukemia and in the experiment on RPMI-8226 leukemia was over 100 µM throughout. In addition, the TGI in the experiment with U251 CNS was over 100 µM.
Take `CC(=O)NC(C=O)C(O[C@H](C)C(=O)NC(C)C(=O)NC(CCC(N)=O)C(=O)OCc1ccccc1)C(O)C(O)COC(=O)CCNc1c2ccccc2nc2cccc([N+](=O)[O-])c12` (some centres undefined): the TGI is 22.3 µM in the experiment on EKVX NSCLC; 30 µM in the experiment on HCT-15 colon; over 100 µM in the experiment on IGROV1 ovarian; 3.75 µM in the experiment on KM12 colon; 14.8 µM in the experiment on MOLT-4 leukemia; 6.89 µM with NCI-H226 lung. The TGI was determined as 4.39 µM in the experiment on RPMI-8226 leukemia and 7.14 µM in the experiment with U251 CNS.
As to `Cc1c2c(c(C)c3c1[nH]c1ccccc13)CN(C)CC2`, the TGI in the experiment on ACHN renal is 35.7 µM; in the experiment on HCT-15 colon it was 31 µM; in the experiment with IGROV1 ovarian, over 100 µM; in the experiment with KM12 colon, 33.9 µM; with MOLT-4 leukemia, over 100 µM; in the experiment on NCI-H226 lung, 56.5 µM. Besides, the TGI with RPMI-8226 leukemia was found to be 67 µM; in the experiment on U251 CNS it was 26 µM.
With `NC(=O)CC(N=Cc1nc(-c2ccccc2)oc1O)C(=O)O` (centres undefined), the TGI in the experiment on ACHN renal, in the experiment with EKVX NSCLC, in the experiment on HCT-15 colon, in the experiment with IGROV1 ovarian, with KM12 colon and in the experiment with NCI-H226 lung was over 100 µM each time. For the same molecule, the TGI in the experiment with RPMI-8226 leukemia and with U251 CNS was over 100 µM throughout.
With `Cc1ccc(NC(=O)CCc2n[nH]c(=S)o2)cc1`, the TGI in the experiment with ACHN renal, with EKVX NSCLC, in the experiment on HCT-15 colon, in the experiment on IGROV1 ovarian, with KM12 colon and in the experiment with MOLT-4 leukemia was over 100 µM in each case. The TGI with NCI-H226 lung and with U251 CNS was over 100 µM throughout.
On to `CN(CCC(=O)/C(=C\c1ccccc1)c1ccc(Cl)cc1)Cc1ccccc1`, for which the GI50 is 2.25 µM in the experiment on ACHN renal; 5.37 µM in the experiment on EKVX NSCLC; 2.42 µM in the experiment with HCT-15 colon; 3.07 µM with KM12 colon; 1.49 µM with MOLT-4 leukemia; 2.44 µM in the experiment with NCI-H226 lung. Further, the GI50 in the experiment on U251 CNS is 1.9 µM. The TGI with ACHN renal came out at 5.46 µM; in the experiment with EKVX NSCLC it was 18.8 µM; in the experiment on HCT-15 colon, 7.05 µM; in the experiment on KM12 colon it was 11 µM; in the experiment on MOLT-4 leukemia it was 6.88 µM; with NCI-H226 lung it was 5.53 µM. In the experiment with U251 CNS, this molecule returned a TGI of 4.35 µM.
For the molecule `Cl.Fc1c[c-]c(-c2ccccn2)c(F)c1.[Pt].c1ccc([PH+](C[PH+](c2ccccc2)c2ccccc2)c2ccccc2)cc1`, the GI50 with ACHN renal is 0.218 µM; in the experiment with EKVX NSCLC, 0.261 µM; with KM12 colon, 0.276 µM; in the experiment on RPMI-8226 leukemia it was 0.161 µM. For the same molecule, the TGI in the experiment with ACHN renal was found to be 0.463 µM; with EKVX NSCLC it was 1.05 µM; in the experiment on KM12 colon it was 1 µM; in the experiment with RPMI-8226 leukemia, 0.544 µM.
Consider `Cc1ccc(S(=O)(=O)N/N=C/C(C)C)cc1`, for which the TGI in the experiment on ACHN renal, in the experiment on EKVX NSCLC, in the experiment with HCT-15 colon, in the experiment with IGROV1 ovarian, in the experiment with KM12 colon and in the experiment on MOLT-4 leukemia was over 100 µM each time. The TGI with RPMI-8226 leukemia and with U251 CNS was over 100 µM in each case.
